Holding throughout (format): functional
Experiment [1] concerns the target T1, Sentrin-specific protease 6 (Homo sapiens, UniProt Q9GZR1).
T1 sequence (Q9GZR1 whole entry): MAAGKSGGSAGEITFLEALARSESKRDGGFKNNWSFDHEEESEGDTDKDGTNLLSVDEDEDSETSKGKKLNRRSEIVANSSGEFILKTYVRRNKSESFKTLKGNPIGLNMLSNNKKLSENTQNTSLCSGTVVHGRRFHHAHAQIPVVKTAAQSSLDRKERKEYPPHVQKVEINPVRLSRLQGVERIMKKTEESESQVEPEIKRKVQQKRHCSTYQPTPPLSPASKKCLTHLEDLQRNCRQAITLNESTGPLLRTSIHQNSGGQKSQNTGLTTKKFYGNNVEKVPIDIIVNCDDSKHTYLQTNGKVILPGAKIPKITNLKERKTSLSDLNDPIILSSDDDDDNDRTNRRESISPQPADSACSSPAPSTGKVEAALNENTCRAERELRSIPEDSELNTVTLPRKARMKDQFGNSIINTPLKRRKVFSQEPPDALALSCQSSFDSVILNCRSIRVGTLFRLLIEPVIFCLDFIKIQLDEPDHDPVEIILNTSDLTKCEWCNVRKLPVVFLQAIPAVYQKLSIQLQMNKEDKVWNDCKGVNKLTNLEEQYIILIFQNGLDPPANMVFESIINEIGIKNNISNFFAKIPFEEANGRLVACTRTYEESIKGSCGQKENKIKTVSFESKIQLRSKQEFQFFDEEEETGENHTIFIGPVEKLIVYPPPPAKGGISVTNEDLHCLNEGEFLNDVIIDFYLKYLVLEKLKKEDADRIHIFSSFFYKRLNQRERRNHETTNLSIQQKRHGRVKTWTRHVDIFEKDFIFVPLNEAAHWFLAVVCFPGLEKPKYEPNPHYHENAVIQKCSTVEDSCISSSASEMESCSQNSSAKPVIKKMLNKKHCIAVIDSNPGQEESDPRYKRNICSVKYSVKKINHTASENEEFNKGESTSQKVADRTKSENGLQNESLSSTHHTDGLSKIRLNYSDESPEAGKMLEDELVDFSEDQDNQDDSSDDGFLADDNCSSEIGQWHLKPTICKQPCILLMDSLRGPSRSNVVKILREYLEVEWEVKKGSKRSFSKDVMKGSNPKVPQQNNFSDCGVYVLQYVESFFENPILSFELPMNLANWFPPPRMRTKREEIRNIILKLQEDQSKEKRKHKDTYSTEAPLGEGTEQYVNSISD
Put plainly: SAR Analysis of small molecule inhibitors of Sentrin-specific protease 6 (SENP6) using a Luminescent assay. [Related pubchem assays (depositor defined):AID2582, AID2599].

Experiment [2] addresses T2, Caspase-3 (Homo sapiens, UniProt P42574).
T2 sequence (P42574 whole entry): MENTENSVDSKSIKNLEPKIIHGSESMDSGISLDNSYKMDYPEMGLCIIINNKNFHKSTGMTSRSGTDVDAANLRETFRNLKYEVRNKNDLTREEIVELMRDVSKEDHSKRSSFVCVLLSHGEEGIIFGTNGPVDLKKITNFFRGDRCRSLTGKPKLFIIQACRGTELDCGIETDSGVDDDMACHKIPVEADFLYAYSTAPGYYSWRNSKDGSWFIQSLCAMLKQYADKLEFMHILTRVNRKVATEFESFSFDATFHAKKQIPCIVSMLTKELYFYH

Experiment [3] deals with T3, Apoptotic protease-activating factor 1 (Homo sapiens, UniProt O14727).
T3 sequence (O14727 whole entry): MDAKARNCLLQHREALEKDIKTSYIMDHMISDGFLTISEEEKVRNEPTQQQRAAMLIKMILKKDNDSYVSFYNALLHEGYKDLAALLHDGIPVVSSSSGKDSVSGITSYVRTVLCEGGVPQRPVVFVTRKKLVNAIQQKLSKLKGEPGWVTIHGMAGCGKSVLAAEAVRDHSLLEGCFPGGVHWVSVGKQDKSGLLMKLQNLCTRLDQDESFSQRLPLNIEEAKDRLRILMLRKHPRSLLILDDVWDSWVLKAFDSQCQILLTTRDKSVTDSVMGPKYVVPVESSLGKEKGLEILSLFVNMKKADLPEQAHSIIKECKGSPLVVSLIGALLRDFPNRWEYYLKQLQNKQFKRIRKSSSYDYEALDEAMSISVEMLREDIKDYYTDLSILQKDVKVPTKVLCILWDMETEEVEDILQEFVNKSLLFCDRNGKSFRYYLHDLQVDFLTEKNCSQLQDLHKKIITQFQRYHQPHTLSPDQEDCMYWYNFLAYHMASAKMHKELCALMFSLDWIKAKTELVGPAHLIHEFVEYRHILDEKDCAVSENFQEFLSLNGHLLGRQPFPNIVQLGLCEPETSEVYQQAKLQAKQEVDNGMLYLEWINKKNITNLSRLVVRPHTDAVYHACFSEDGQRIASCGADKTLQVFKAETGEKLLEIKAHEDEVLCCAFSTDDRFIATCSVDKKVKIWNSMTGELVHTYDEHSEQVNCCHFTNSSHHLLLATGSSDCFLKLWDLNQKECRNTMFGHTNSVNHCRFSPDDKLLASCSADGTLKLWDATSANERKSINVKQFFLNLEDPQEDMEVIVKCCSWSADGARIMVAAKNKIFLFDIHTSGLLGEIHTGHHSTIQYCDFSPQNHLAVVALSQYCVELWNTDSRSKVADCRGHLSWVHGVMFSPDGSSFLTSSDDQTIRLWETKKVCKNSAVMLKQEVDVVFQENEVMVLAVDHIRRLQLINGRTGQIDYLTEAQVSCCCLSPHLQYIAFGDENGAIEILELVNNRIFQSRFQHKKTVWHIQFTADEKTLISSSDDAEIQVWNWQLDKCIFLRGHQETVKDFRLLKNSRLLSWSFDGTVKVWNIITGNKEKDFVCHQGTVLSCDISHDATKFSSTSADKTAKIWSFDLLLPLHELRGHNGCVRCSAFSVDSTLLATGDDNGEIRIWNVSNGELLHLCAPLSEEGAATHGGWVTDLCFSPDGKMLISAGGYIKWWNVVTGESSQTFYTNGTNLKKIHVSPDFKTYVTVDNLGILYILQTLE

Calls of active or inactive are those of the source. No stated cut-off is given here; in the data, actives have a measured IC50 and inactives only a lower limit.

On to `O=C(NN=c1c(=O)c2ccccc2c1=O)c1ccccc1`, for which the IC50 (as a rule, the concentration at which inhibition is half-maximal) in experiment [1] was 5.31 µM (active); in experiment [2] it was > 100 µM (inactive); in experiment [3] it was 1.66 µM (active).
